This note sets out measurements from patent US20220249534A1, “METHOD OF TREATING CANCER WITH NUCLEOTIDE THERAPEUTICS” (Massachusetts Institute of Technology, priority 2021, published 2022).

The test system of test [1] is A549 cells. Put plainly: Proliferation rate of A549 cells with added single nucleoside/base. The test is classed as cell-based, human. To be noted: for pIC50: Homo sapiens. As to the method: (§1) This effect was dose-titratable over a 0.1 mM to 2.0 mM range, with increasing concentrations of multiple single nucleotides completely preventing cell proliferation.
(§2) In Table 1, the approximate concentration of each nucleotide that when added slows the proliferation of the indicated cells by half is shown.
(§3) All adherent and human leukemia cell lines were cultured in DMEM or RPMI supplemented with 10% heat inactivated fetal bovine serum at 37° C. with 5% CO2. The Lys-GFP-ER-HoxA9 63.3 cells were cultured in RPMI supplemented with 10% fetal bovine serum, stem cell factor, and beta-estradiol as described previously (Sykes et al., (2016), Cell. 167(1): 171-186.e15). All cell lines regularly tested negative for mycoplasma.
(§4) To assess proliferation, the number of cells seeded for each cell line allowed for exponential growth over the course of the assay. To assess effects of nucleotide treatment, cells were washed three times with PBS and 4 mL of treatment media was added one day after plating cells. The following formula was used to calculate proliferation rate:
(§5) Doublings per day=[Log2(Final day 4 cell count/Initial day 0 cell count)]/4 days

In test [2] the test system is A549 cells. Kind of test: LCMS analysis of intracellular nucleotide levels in A549 cells. The test is classed as cell-based, human. The protocol:
Where indicated, cells were incubated in media with 4 mM ^15N-amide-glutamine and/or 200 μM ^13C-guanine or ^13C-adenine for 24 hours prior to LCMS Analysis of metabolites. For assessment of metabolites, cells were washed three times with PBS prior to extracting polar metabolites from cells: plates were placed on ice, cells were washed with ice-cold blood bank saline, and 500 μl of ice-cold 80% methanol in water with 250 nM ^13C/^15N labeled amino acid standards (MSK-A2-1.2: Cambridge Isotope Laboratories, Inc.) was added to each well. Cells were scraped, each sample was vortexed for 10 minutes at 4° C., and then centrifuged at maximum speed for 10 minutes at 4° C. Samples were dried under nitrogen gas and resuspended in 25 μl of a 50/50 acetonitrile/water mixture. Metabolites were measured using a Dionex UltiMate 3000 ultra-high performance liquid chromatography system connected to a Q Exactive benchtop Orbitrap mass spectrometer, equipped with an Ion Max source and a HESI II probe (Thermo Fisher Scientific). […]
Metabolites were monitored in full-scan, polarity-switching, mode. […] Relative quantitation of metabolites was performed with XCalibur QuanBrowser 2.2 (Thermo Fisher Scientific) using a 5 ppm mass tolerance and referencing an in-house retention time library of chemical standards. […]

Test [3] can be described thus: Comet tail assay of DNA damage. As to conditions: 24 hours; small fraction of treated cells. The format is cell-based. From the text:
The cancer cell is contacted with that amount of purine, purine precursor, purine analog, pyrimidine, pyrimidine precursor, and/or pyrimidine which, once entering the cell, changes the cell's internal baseline purine:pyrimidine ratio and induces replication stress in the cell. The induction of replication stress can be measured, in any way known in the art, e.g., with the Comet assay which measures DNA damage. In this assay, cells are mixed in low melting point agarose on a microscope slide and are lysed with a detergent, e.g., 1% N-lauryl sarcosine, 0.5% Triton X-100, DMSO, and high salt, e.g., 2.5 M NaCl, 0.1 M EDTA and 10 mM Tris, to form nucleoids containing supercoiled loops of DNA that are linked to the nuclear matrix. After electrophoresis at high pH structures can be observed resembling comets, visualized by fluorescence microscopy. The intensity of the comet tail relative to the head is proportional to the number of breaks in the DNA. Comets can be scored with dedicated software such as, but not limited to, CaspLab software or OpenComet software.

For the next test, the system named is 143B cells. Kind of test: Proliferation rate of 143B cells with added single nucleoside/base. The format is cell-based. As to conditions: Homo sapiens, read-out: Added nucleoside/base concentration that slows proliferation by half. As to the method: as §1, §2, §3, §4, §5
The test system of the next test is MDA-MB-468 cells. Put plainly: Proliferation rate of MDA-MB-468 cells with added single nucleoside/base. The test is classed as cell-based. As to conditions: Homo sapiens. As to the method: as §1, §2, §3, §4, §5
The next test has as its system H1299 cells. Kind of test: Proliferation rate of H1299 cells with added single nucleoside/base. The test is classed as cell-based. As to conditions: Homo sapiens. As to the method:
as §1, §2, §3, §4, §5

The subject of a further test is U2OS cells. Put plainly: Proliferation rate of U2OS cells with added single nucleoside/base. The test is classed as cell-based. To be noted: Homo sapiens, read-out: Added nucleoside/base concentration that slows proliferation by half. As to the method: as §1, §2, §3, §4, §5
The subject of the next test is Chk1 and Chk2. Put plainly: Replication stress signaling: phosphorylation of ATR/ATM targets Chk1 and Chk2. As to conditions: stronger signaling at higher concentrations. The format is cell-based. From the text:
To determine if nucleotide imbalance causes replication stress in a cancer cell, targets of the ATR and ATM kinases were examined after the addition of a nucleotide to change the internal nucleotide ratio. The ATR and ATM kinases are components of the cellular response to DNA damage, and sense single-stranded DNA and DNA double-strand breaks, respectively. The respective targets of ATR and ATM, Chk1 and Chk2, are major effectors of the DNA damage response. […] The appearance of p-Chk1 occurred first between 12 hours and 24 hours of guanine treatment, followed by the appearance of p-Chk2 between 48 hours and 72 hours. Induction of the replication stress response was reversed by addition of adenine together with guanine. A similar induction of ATR and ATM signaling occurred with any excess nucleotide supplementation that impaired S phase progression, but not with leucine deprivation, consistent with impaired DNA replication. Inhibiting total purine or pyrimidine synthesis induced phosphorylation of Chk1 and Chk2 but to a lesser extent than Guanosine treatment.

A further test concerns A2780 cells. Put plainly: Proliferation rate of A2780 cells with added single nucleoside/base. The test is classed as cell-based. To be noted: Homo sapiens. The protocol:
as §1, §2, §3, §4, §5

A further test has as its system 63.3 cells. Put plainly: Differentiation of Lys-GFP-ER-HoxA9 63.3 cells by flow cytometry. As to conditions: 10^-3 to 10^-7 M, FIG. 4A. The test is classed as cell-based. The protocol: (§6) That exogenous nucleotides can direct cancer cells to undergo differentiation was determined as follows. Thymidine was added at concentrations ranging from 10^−3 to 10^−7 M to 63.3 cells (FIG. 4A), THP1 cells (FIG. 4B) and U937 cells (FIG. 4C). Cell differentiation was monitored by CD11b+/CD16+ expression, and by CD11b+ total expression.
as §3
(§7) The Lys-GFP-ER-HoxA9 cells or human leukemia cell lines were grown in round-bottom tissue-culture treated plates. Following a 4-day incubation with nucleotides, cells were incubated with antibodies, washed, incubated with FACS buffer containing DAPI, and analyzed by flow cytometry. Viability was assessed by forward and side scatter as well as by DAPI exclusion. For the Lys-GFP-ER-HoxA9 63.3 cells, differentiation was assessed by GFP and staining with an anti-CD11b-APC antibody (final concentration of 1:400; Clone M1/70, Biolegend). […]
In general terms: A flow cytometer gives signals particle by particle.

Another test concerns U937 cells. Put plainly: Differentiation of U937 cells by flow cytometry. The test is classed as cell-based, human. As to conditions: 10^-3 to 10^-7 M, FIG. 4C. As to the method: as §6, §3, §7
The subject of the next test is THP1 cells. Kind of test: Differentiation of THP1 cells by flow cytometry. The format is cell-based, human. To be noted: 10^-3 to 10^-7 M, FIG. 4B. The protocol: as §6, §3, §7
Setting [4] is: 143B cells, approximate concentration.
Setting [5] is: A549 cells, approximate concentration, read-out: Added nucleoside/base concentration that slows proliferation by half.
Where [6] appears, read: MDA-MB-468 cells, approximate concentration, read-out: Added nucleoside/base concentration that slows proliferation by half.
Setting [7] is: NCI-H1299, H1299 cells, approximate concentration, read-out: Added nucleoside/base concentration that slows proliferation by half.
[8] abbreviates: U2OS cells, approximate concentration.
Where [9] appears, read: A2780 cells, approximate concentration, read-out: Added nucleoside/base concentration that slows proliferation by half.

pIC50: −log10 of the molar value. Like-named read-outs stand apart in the source and are kept apart here.

For the compound `Nc1ccn([C@H]2C[C@H](O)[C@@H](CO)O2)c(=O)n1` [Deoxycytidine], in the test with A549 cells [1] (A549 cells, FIG. 1B, higher concentrations), the Effect on proliferation entry is “blocked proliferation”.
Regarding `Nc1nc2nc[nH]c2c(=O)[nH]1` [G, guanine], in the test on A549 cells [2] (FIGS. 2A and 3A-3B), the “Intracellular pools of guanylate nucleotides (GTP/GDP/GMP)” value is on record as “dramatically increased”. Besides, the “Intracellular levels of adenylate nucleotides (ATP/ADP/AMP)” value with A549 cells [2] (FIGS. 2B and 3C-3D) is reported as “decreased”. In [3], the “DNA damage by comet tail assay” value is on record as “minor increases in DNA damage”. Also, the pIC50 in the test on 143B cells (143B) was 3.92; with A549 cells [1] (A549, read-out: Added nucleoside/base concentration that slows proliferation by half), 4.10; with MDA-MB-468 cells (MDA-MB-468, read-out: Added nucleoside/base concentration that slows proliferation by half) it was 3.82; in the test with H1299 cells (NCI-H1299, read-out: Added nucleoside/base concentration that slows proliferation by half), 3.70; in the test on U2OS cells (U2OS), 3.60; in the test with A2780 cells (A2780, read-out: Added nucleoside/base concentration that slows proliferation by half), 4.00. Further, the “Phosphorylation of Chk1 and Chk2 (replication stress response)” value in the test on Chk1 and Chk2 is “robust phosphorylation”.
Regarding `Nc1ncnc2c1ncn2[C@H]1C[C@H](O)[C@@H](CO)O1` [dA, deoxyadenosine], the pIC50 in the test with 143B cells (setting [4]) was 3.22; in the test with A549 cells [1] (setting [5]), 2.92; with MDA-MB-468 cells (setting [6]), 3.65; with H1299 cells (setting [7]), 3.10; in the test with U2OS cells (setting [8]), 3.22; with A2780 cells (setting [9]) it was 3.52.
With `Nc1ncnc2c1ncn2[C@@H]1O[C@H](CO)[C@@H](O)[C@H]1O` [A, adenosine], the pIC50 in the test on 143B cells (setting [4]) was 3.00; in the test with A549 cells [1] (setting [5]) it was 2.68; in the test on MDA-MB-468 cells (setting [6]) it was 3.10; with H1299 cells (setting [7]), 2.96; with U2OS cells (setting [8]), 3.02; in the test with A2780 cells (setting [9]), 3.00.
As to `Cc1cn([C@H]2C[C@H](O)[C@@H](CO)O2)c(=O)[nH]c1=O` [T, thymidine], the “Cell differentiation (CD11b+ markers)” value in the test on 63.3 cells is “induced cell differentiation in a concentration dependent manner”. In addition, the pIC50 was 3.30 with A549 cells [1] (setting [5]); 3.82 in the test with MDA-MB-468 cells (setting [6]); 3.15 with H1299 cells (setting [7]); 3.30 with U2OS cells (setting [8]); 3.52 with A2780 cells (setting [9]). In addition, the “Cell differentiation (CD11b+/CD16+ and CD11b+ total expression)” value in the test with U937 cells and with THP1 cells was “induced cell differentiation in a concentration dependent manner” each time.
